# US9441012B2, “Fluorinated epoxyketone-based compounds and uses thereof as proteasome inhibitors” (FLUORINOV PHARMA INC., priority 2012, dated 2016)
# Assays:
# Assay in all cases: NCI 60 human tumor cell line screen (SRB)
# Format in all cases: cell-based
# MOLT-4 = MOLT-4 (Leukemia); 48 h
# A549/ATCC = A549/ATCC (Non-Small Cell Lung Cancer); 48 h
# Excerpt: (§1) Representative compounds of Formula I were screened using the National Cancer Institute (NCI) screening panel, which consists of a panel of 60 different human tumor cell lines, representing leukemia [CCRF-CEM, HL-60 (TB), K-562, MOLT-4, SR], melanoma [LOX IMVI, MALME-3M, M14, SMDA-MB-435, SK-MEL-2, SK-MEL-28, SK-MEL-5, UACC-257 and UACC-62] and cancers of the lung [A549/ATCC, EKVX, HOP-62, HOP-93, NCI-H226, NCI-H23, NCI-H322M, NCI-H460], colon [COLO 205, HCT-116, HCT-15, HT29, KM12, SW-620], brain [SF-268, SF-295, SF-539, SNB-19, SNB-75, U251], ovary [IGROV1, OVCAR-3, OVCAR-4, OVCAR-5, OVCAR-8, NCI/ADR-RES, SK-OV-3], breast [MCF7, MDA-MB-231, BT-549, T-47D, MDA-MB-468], prostate [PC-3, DU-145], and renal[786-0, A498, ACHN, CAKI-1, RXF-393, SN12C, TK-10, UO-31] cancers.
# (§2) After 24 h, two plates of each cell line are fixed in situ with TCA, to represent a measurement of the cell population for each cell line at the time of drug addition (Tz). Experimental drugs are solubilised in dimethyl sulfoxide at 400-fold the desired final maximum test concentration and stored frozen prior to use. At the time of drug addition, an aliquot of frozen concentrate is thawed and diluted to twice the desired final maximum test concentration with complete medium containing 50 μg/ml gentamicin. Additional four, 10-fold or ½ log serial dilutions are made to provide a total of five drug concentrations plus control. Aliquots of 100 μl of these different drug dilutions are added to the appropriate microtiter wells already containing 100 μl of medium, resulting in the required final drug concentrations.
# (§3) Following drug addition, the plates are incubated for an additional 48 h at 37° C., 5% CO2, 95% air, and 100% relative humidity. For adherent cells, the assay is terminated by the addition of cold TCA (trichloroacetic acid). Cells are fixed in situ by the gentle addition of 50 μl of cold 50% (w/v) TCA (final concentration, 10% TCA) and incubated for 60 minutes at 4° C. The supernatant is discarded, and the plates are washed five times with tap water and air dried. Sulforhodamine B (SRB) solution (100 μl) at 0.4% (w/v) in 1% acetic acid is added to each well, and plates are incubated for 10 minutes at room temperature. After staining, unbound dye is removed by washing five times with 1% acetic acid and the plates are air dried. Bound stain is subsequently solubilised with 10 mM trizma base, and the absorbance is read on an automated plate reader at a wavelength of 515 nm. For suspension cells, the methodology is the same except that the assay is terminated by fixing settled cells at the bottom of the wells by gently adding 50 μl of 80% TCA (final concentration, 16% TCA). Using the seven absorbance measurements [time zero, (Tz), control growth, (C), and test growth in the presence of drug at the five concentration levels (Ti)], the percentage growth is calculated at each of the drug concentration levels. Percentage growth inhibition is calculated as: [(Ti−Tz)/(C−Tz)]×100 for concentrations in which Ti>/=Tz and [(Ti−Tz)/Tz]×100 for concentrations in which Ti<Tz.
# (§4) Three dose response parameters are calculated for each experimental agent. Growth inhibition of 50% (GI50) is calculated from [(Ti−Tz)/(C−Tz)]100=50, which is the drug concentration resulting in a 50% reduction in the net protein increase (as measured by SRB staining) in control cells during the drug incubation. The drug concentration resulting in total growth inhibition (TGI) is calculated from Ti=Tz. The LC50 (concentration of drug resulting in a 50% reduction in the measured protein at the end of the drug treatment as compared to that at the beginning) indicating a net loss of cells following treatment is calculated from [(Ti−Tz)/Tz]×100=−50. Values are calculated for each of these three parameters if the level of activity is reached. However, if the effect is not reached or is exceeded, the value for that parameter is expressed as greater or less than the maximum or minimum concentration tested.
# TK-10 = TK-10 (Renal Cancer); 48 h
# Excerpt: as §1, §2, §3, §4
# NCI/ADR-RES = NCI/ADR-RES (Ovarian Cancer); 48 h
# Excerpt: as §1, §2, §3, §4
# SNB-19 = SNB-19 (CNS Cancer); 48 h
# Excerpt: as §1, §2, §3, §4
# MALME-3M = MALME-3M (Melanoma); 48 h
# Excerpt: as §1, §2, §3, §4
# UO-31 = UO-31 (Renal Cancer); 48 h
# Excerpt: as §1, §2, §3, §4
# OVCAR-5 = OVCAR-5 (Ovarian Cancer); 48 h
# Excerpt: as §1, §2, §3, §4
# OVCAR-4 = OVCAR-4 (Ovarian Cancer); 48 h
# Excerpt: as §1, §2, §3, §4
# COLO 205 = COLO 205 (Colon Cancer); 48 h
# Excerpt: as §1, §2, §3, §4
# HOP-92 = HOP-92 (Non-Small Cell Lung Cancer); 48 h
# Excerpt: as §1, §2, §3, §4
# IGROV1 = IGROV1 (Ovarian Cancer); 48 h
# Excerpt: as §1, §2, §3, §4
SMILES,Log10GI50 (MOLT-4),Log10LC50 (MOLT-4),Log10TGI50 (MOLT-4),Log10GI50 (A549/ATCC),Log10LC50 (A549/ATCC),Log10TGI50 (A549/ATCC),Log10GI50 (TK-10),Log10TGI50 (TK-10),Log10GI50 (NCI/ADR-RES),Log10LC50 (NCI/ADR-RES),Log10TGI50 (NCI/ADR-RES),Log10GI50 (SNB-19),Log10LC50 (SNB-19),Log10TGI50 (SNB-19),Log10GI50 (MALME-3M),Log10LC50 (MALME-3M),Log10TGI50 (MALME-3M),Log10GI50 (UO-31),Log10LC50 (UO-31),Log10TGI50 (UO-31),other results
"Cc1ncc(C(=O)N[C@@H](COC(F)F)C(=O)N[C@@H](COC(F)F)C(=O)N[C@@H](Cc2ccccc2)C(=O)[C@@]2(C)CO2)s1 [Example 1, 2-methyl-thiazole-5-carboxylic acid ((S)-1-{(S)-1-[(S)-1-benzyl-2-((R)-2-methyloxiranyl)-2-oxo-ethylcarbamoyl]-2-difluoromethoxyethylcarbamoyl}-2-difluoromethoxyethyl)-amide]",−7.37,>−4.00,>−4.00,−6.41,>−4.00,>−4.00,−6.71,−6.06,−5.11,>−4.00,−4.23,−6.49,>−4.00,>−4.00,−7.30,>−4.00,−6.38,−5.84,−4.59,−5.32,Log10GI50 (OVCAR-5): −6.18; Log10LC50 (OVCAR-5): −4.17; Log10TGI50 (OVCAR-5): −5.30; Log10GI50 (OVCAR-4): −6.29; Log10LC50 (OVCAR-4): >−4.00; Log10TGI50 (OVCAR-4): >−4.00; Log10GI50 (COLO 205): −6.22; Log10LC50 (COLO 205): >−4.00; Log10TGI50 (COLO 205): −4.85; Log10GI50 (HOP-92): −6.23; Log10LC50 (HOP-92): −4.39; Log10TGI50 (HOP-92): −5.40
"CC(C)C[C@H](NC(=O)[C@H](Cc1ccccc1)NC(=O)[C@H](COC(F)F)NC(=O)CN1CCOCC1)C(=O)[C@@]1(C)CO1 [Example 25, (2S)-2-[[(2S)-3-(difluoromethoxy)-2-[(2-morpholinoacetyl)amino]propanoyl]amino]-N-[(1S)-3-methyl-1-[(2R)-2-methyloxirane-2-carbonyl]butyl]-3-phenyl-propanamide]",−7.69,>−4.00,−7.11,−7.41,>−4.00,−6.13,−7.49,−6.07,−5.82,>−4.00,>−4.00,−7.23,>−4.00,>−4.00,−7.51,>−4.00,−6.64,−6.62,−5.17,−5.95,Log10GI50 (IGROV1): −7.43; Log10LC50 (IGROV1): >−4.00; Log10TGI50 (IGROV1): −6.38; Log10LC50 (TK-10): >−4.00; Log10GI50 (OVCAR-5): −7.36; Log10LC50 (OVCAR-5): >−4.00; Log10TGI50 (OVCAR-5): −6.44; Log10GI50 (OVCAR-4): −7.50; Log10LC50 (OVCAR-4): >−4.00; Log10TGI50 (OVCAR-4): −6.75; Log10GI50 (COLO 205): −7.39; Log10LC50 (COLO 205): −6.21; Log10TGI50 (COLO 205): −6.76; Log10GI50 (HOP-92): −7.65; Log10LC50 (HOP-92): −6.35; Log10TGI50 (HOP-92): −7.16
"C[C@]1(C(=O)[C@H](Cc2ccccc2)NC(=O)[C@H](COC(F)F)NC(=O)[C@H](COC(F)F)NC(=O)CN2CCOCC2)CO1 [Example 26, (S)-N-{(S)-1-[(S)-1-Benzyl-2-((R)-2-methyl-oxiranyl)-2-oxo-ethylcarbamoyl]-2-difluoromethoxyethyl}-3-difluoromethoxy-2-(2-morpholin-4-yl-acetylamino)-propio-namide]",−7.69,>−4.00,−7.11,−7.41,>−4.00,−6.13,−7.49,−6.07,−5.82,>−4.00,>−4.00,−7.23,>−4.00,>−4.00,−7.51,>−4.00,−6.64,−6.62,−5.17,−5.95,Log10GI50 (IGROV1): −7.43; Log10LC50 (IGROV1): >−4.00; Log10LC50 (TK-10): >−4.00; Log10GI50 (OVCAR-5): −7.36; Log10LC50 (OVCAR-5): >−4.00; Log10TGI50 (OVCAR-5): −6.44; Log10GI50 (OVCAR-4): −7.50; Log10LC50 (OVCAR-4): >−4.00; Log10TGI50 (OVCAR-4): −6.75; Log10GI50 (COLO 205): −7.39; Log10LC50 (COLO 205): −6.21; Log10TGI50 (COLO 205): −6.76; Log10GI50 (HOP-92): −7.65; Log10LC50 (HOP-92): −6.35; Log10TGI50 (HOP-92): −7.16
C[C@]1(C(=O)[C@H](Cc2ccccc2)NC(=O)[C@H](Cc2ccccc2)NC(=O)[C@H](COC(F)F)NC(=O)CN2CCOCC2)CO1 [Example 29],−7.54,>−4.00,−7.05,−6.68,>−4.00,>−4.00,−6.55,−5.10,−5.58,>−4.00,>−4.00,−6.51,>−4.00,>−4.00,−6.69,>−4.00,−6.15,−6.46,−4.62,−5.71,Log10GI50 (IGROV1): −6.67; Log10LC50 (IGROV1): >−4.00; Log10TGI50 (IGROV1): >−4.00; Log10LC50 (TK-10): >−4.00; Log10GI50 (OVCAR-5): −6.65; Log10LC50 (OVCAR-5): >−4.00; Log10TGI50 (OVCAR-5): −5.58; Log10GI50 (OVCAR-4): −6.98; Log10TGI50 (OVCAR-4): >−4.00; Log10GI50 (COLO 205): −6.90; Log10LC50 (COLO 205): −5.34; Log10TGI50 (COLO 205): −6.32; Log10GI50 (HOP-92): −7.18; Log10LC50 (HOP-92): −6.03; Log10TGI50 (HOP-92): −6.55
